# From patent publication US4863904A, “Dipeptides as renin inhibitors” (priority 1984, dated 1989)
# What was measured:
# common marmosets = experiment: Depressive effect in marmosets (blood pressure of conscious marmosets in a high renin state); type: in vivo; conditions: 100 mg/kg orally, conscious furosemide-treated common marmoset
# Protocol: The experiment was carried out by using common marmosets as described in K. G. Hofbauer et al., Clinical and Experimental Hypertension-Theory and Practice, Vol A5, Nos 7 & 8 (1983), pages 1237-1247.
# Furosemide was orally administered three times to common marmosets at 15 mg per kilogram per day every other day to create a high renin state. The operation was performed according to the method used by K. G. Hofbauer et al., and blood pressure of conscious marmosets was measured 2 days after the last administration of furosemide.
# Male common marmosets weighing 350 g and 280 g were lightly anesthetized by Ketamine hydrochloride (Ketalar®, 10 to 20 mg/kg i.m.), and their femoral artery and vein was exposed. Catheters being filled with a heparin solution was subcutaneously inserted into the femoral vein and the femoral artery from the tail. After suturing of the opened part, the marmosets were placed on a heated mat. After complete recovery from the anesthesia, a dipeptide of the present invention (100 mg/kg) was orally administered through a soft catheter.
# The arterial catheter was connected to a pressure transducer and blood pressure was recorded on the polygraph.
# human renin = biological target: T1, human renin (Homo sapiens, UniProt P00797); experiment: Human renin-sheep renin substrate reaction system in vitro; type: biochemical; conditions: purified human renin, semipurified sheep renin substrate, pH 7.4, 37° C., 15 minutes; angiotensin I by radioimmunoassay; read-out: IC50 (molar concentration)
# T1 sequence (P00797 67-406): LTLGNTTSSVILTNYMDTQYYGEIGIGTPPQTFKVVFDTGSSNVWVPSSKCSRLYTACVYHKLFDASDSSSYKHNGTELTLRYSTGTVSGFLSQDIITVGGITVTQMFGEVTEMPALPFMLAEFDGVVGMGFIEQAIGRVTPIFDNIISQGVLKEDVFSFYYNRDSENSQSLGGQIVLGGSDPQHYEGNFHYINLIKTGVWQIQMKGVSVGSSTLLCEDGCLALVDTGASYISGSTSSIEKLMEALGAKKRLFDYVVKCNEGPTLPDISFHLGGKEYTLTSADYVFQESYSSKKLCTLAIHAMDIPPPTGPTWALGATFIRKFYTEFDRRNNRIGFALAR
# Protocol: The mixture was incubated for 15 minutes on a water bath at 37° C., and the reaction mixture was allowed to stand for 5 minutes on a water bath at 100° C. to stop the reaction. After cooling, 200 μl of the solution was taken up and the amount of angiotensin I produced by the addition of renin was determined by radioimmunoassay. The inhibitory effect was calculated by the following equation. [formula]
# As a control, the same procedure as above was carried out by using 50 μl of dimethyl sulfoxide alone in place of the 50 μl of dimethyl sulfoxide solution containing a dipeptide of the present invention.
compound,measurement,setting,value
CC(C)C[C@@H](CO)NC(=O)[C@H](Cc1c[nH]cn1)NC(=O)C(CC(=O)NCCc1ccccc1)Cc1cccc2ccccc12 (stereo partly drawn) [N-[2-(1-Naphthylmethyl)-3-(phenethylcarbamoyl)propionyl]-L-histidyl-L-leucinol],Blood pressure (mm Hg),common marmosets; 60 min. after administration,97.7 mm Hg
same,Blood pressure (mm Hg),common marmosets; 120 min. after administration,89.5 mm Hg
same,Blood pressure (mm Hg),common marmosets; 180 min. after administration,95.3 mm Hg
same,Blood pressure (mm Hg),common marmosets; 300 min. after administration,97.4 mm Hg
same,Blood pressure (mm Hg),common marmosets; 420 min. after administration,99.0 mm Hg
CC(C)C[C@@H](C=O)NC(=O)[C@H](Cc1c[nH]cn1)NC(=O)C(CC(=O)NCCc1ccccc1)Cc1cccc2ccccc12 (stereo partly drawn) [N-[2-(1-Naphthylmethyl)-3-(phenethylcarbamoyl)propionyl]-L-histidyl-L-leucinal],Blood pressure (mm Hg),common marmosets; 60 min. after administration,98.2 mm Hg
same,Blood pressure (mm Hg),common marmosets; 120 min. after administration,88.0 mm Hg
same,Blood pressure (mm Hg),common marmosets; 180 min. after administration,87.6 mm Hg
same,Blood pressure (mm Hg),common marmosets; 300 min. after administration,96.5 mm Hg
same,Blood pressure (mm Hg),common marmosets; 420 min. after administration,101.2 mm Hg
CC(C)C[C@@H](C=O)NC(=O)[C@H](Cc1c[nH]cn1)NC(=O)C(CCc1ccccc1)CCc1ccccc1 [N-[4-Phenyl-2-(2-phenylethyl)butanoyl]-L-histidyl-L-leucinal],IC50,human renin,3.5 µM
CC(C)C[C@@H](C=O)NC(=O)[C@H](Cc1c[nH]cn1)NC(=O)C(CCCCCc1ccccc1)Cc1ccccc1 (stereo partly drawn) [N-[2-Benzyl-7-phenylheptanoyl)-L-histidyl-L-leucinal],IC50,human renin,2 µM
CC(C)C[C@@H](C=O)NC(=O)[C@H](Cc1c[nH]cn1)NC(=O)C(CCCCc1ccccc1)Cc1cccc2ccccc12 (stereo partly drawn) [N-[2-(1-Naphthylmethyl)-6-phenylhexanoyl]-L-histidyl-L-leucinal],IC50,human renin,0.14 µM
CC(C)C[C@@H](C=O)NC(=O)[C@H](Cc1c[nH]cn1)NC(=O)C(Cc1ccccc1)Cc1ccccc1 [N-(2-Benzyl-3-phenylpropionyl)-L-histidyl-L-leucinal],IC50,human renin,1.1 µM
CC(C)C[C@@H](C=O)NC(=O)[C@H](Cc1c[nH]cn1)NC(=O)C(CNC(=O)Cc1cccc2ccccc12)Cc1ccccc1 (mixture of isomers) [N-[(±)-2-Benzyl-3-(1-naphthylacetamido)propionyl]-L-histidyl-L-leucinal],IC50,human renin,7.6 µM
"CC(C)C[C@@H](CO)NC(=O)[C@H](Cc1c[nH]cn1)NC(=O)C(CC(=O)NCCc1c[nH]c2ccccc12)Cc1cccc2ccccc12 (single isomer, unassigned) [N-{3-[2-(3-Indolyl)ethylcarbamoyl]-2-(1-naphthylmethyl)propionyl}-L-histidyl-L-leucinol (isomer B)]",IC50,human renin,6.6 µM
"O=C(CC(Cc1cccc2ccccc12)C(=O)N[C@@H](Cc1c[nH]cn1)C(=O)N[C@H](CO)Cc1ccccc1)NCCc1ccccc1 (single isomer, unassigned) [N-[2-(1-naphthylmethyl)-3-(phenethylcarbamoyl)propionyl]-L-histidyl-L-phenylalaninol (isomer A)]",IC50,human renin,91 µM
